Experimental findings from ChEMBL document CHEMBL1201862, “PubChem BioAssay data set” (2004) are described below.

One test has as its target Estrogen receptor beta (Homo sapiens, UniProt Q92731).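 Also: recombinant ER-beta bound to coactivator SRC1 peptide in presence of estradiol agonist; inhibitors block coactivator peptide binding and lower the FRET signal.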
In a further test the target is Ephrin type-A receptor 4 (Mus musculus, UniProt Q03137). As to the kind of experiment: inhibitors of EphA4 binding to KYL peptide, primary screen, biochemical, colorimetric, mouse EphA4 (AID 689). The format is functional.
Test [1] deals with T1, Histone-lysine N-methyltransferase NSD2 (Homo sapiens, UniProt O96028).
T1 sequence (O96028 whole entry): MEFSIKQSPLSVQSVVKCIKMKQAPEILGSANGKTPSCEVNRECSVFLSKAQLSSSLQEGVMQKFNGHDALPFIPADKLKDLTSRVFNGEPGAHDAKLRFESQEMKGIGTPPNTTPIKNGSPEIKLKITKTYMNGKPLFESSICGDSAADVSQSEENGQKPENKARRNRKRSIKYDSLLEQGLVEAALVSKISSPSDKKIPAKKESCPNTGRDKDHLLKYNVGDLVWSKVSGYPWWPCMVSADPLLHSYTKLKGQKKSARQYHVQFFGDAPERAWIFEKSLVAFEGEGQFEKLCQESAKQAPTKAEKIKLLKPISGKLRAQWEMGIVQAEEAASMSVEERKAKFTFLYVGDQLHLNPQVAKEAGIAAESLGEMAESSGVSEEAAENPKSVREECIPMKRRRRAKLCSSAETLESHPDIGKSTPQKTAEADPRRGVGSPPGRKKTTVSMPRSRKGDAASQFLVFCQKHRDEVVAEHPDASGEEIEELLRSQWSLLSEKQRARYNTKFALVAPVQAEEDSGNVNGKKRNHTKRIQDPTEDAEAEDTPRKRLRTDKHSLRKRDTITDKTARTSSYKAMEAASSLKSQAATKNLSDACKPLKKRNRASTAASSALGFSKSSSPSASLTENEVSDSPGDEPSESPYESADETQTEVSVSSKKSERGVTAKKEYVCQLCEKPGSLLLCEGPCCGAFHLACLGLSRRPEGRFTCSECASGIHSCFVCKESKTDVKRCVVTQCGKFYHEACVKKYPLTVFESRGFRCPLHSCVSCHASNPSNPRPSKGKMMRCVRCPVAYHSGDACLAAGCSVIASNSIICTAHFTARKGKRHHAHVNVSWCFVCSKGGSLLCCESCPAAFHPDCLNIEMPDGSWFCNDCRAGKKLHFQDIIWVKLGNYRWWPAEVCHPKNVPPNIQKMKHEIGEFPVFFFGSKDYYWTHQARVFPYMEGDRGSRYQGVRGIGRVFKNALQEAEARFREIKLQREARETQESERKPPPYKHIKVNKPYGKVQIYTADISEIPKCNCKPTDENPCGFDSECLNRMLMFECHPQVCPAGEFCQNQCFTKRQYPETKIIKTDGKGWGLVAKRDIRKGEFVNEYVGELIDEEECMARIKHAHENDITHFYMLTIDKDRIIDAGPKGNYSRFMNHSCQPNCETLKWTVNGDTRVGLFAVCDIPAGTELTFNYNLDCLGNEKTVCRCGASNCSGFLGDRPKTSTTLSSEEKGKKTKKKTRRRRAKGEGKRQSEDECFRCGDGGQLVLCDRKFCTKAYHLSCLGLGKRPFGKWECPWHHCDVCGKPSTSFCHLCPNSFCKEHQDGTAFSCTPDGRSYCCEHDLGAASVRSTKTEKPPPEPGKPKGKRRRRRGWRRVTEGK
The format is biochemical.

The nature of test [2]: inhibitors of intracellular T. cruzi replication, confirmation, NIH3T3 host cells, beta-gal luminescence (AID 2044).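 Also: intracellular parasites grown in NIH/3T3 mouse fibroblasts as host cells; luminescent beta-galactosidase reporter signal from transgenic T. cruzi replicating inside host cells; inhibitors lower the luminescence signal.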 The format is functional, cell-based.
The nature of test [3]: cytotoxicity toward NIH3T3 fibroblasts, dose response, counter-screen, cell-based, ATP luminescence, mouse fibroblasts (AID 2010).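 Also: cells exposed to compound for about 90 hours before reading.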 Type of test: functional. (In general: Counterscreens check selectivity or assay interference.)
In test [4] the target is T2, Mannose-6-phosphate isomerase (Homo sapiens, UniProt P34949).
T2 sequence (P34949 whole entry): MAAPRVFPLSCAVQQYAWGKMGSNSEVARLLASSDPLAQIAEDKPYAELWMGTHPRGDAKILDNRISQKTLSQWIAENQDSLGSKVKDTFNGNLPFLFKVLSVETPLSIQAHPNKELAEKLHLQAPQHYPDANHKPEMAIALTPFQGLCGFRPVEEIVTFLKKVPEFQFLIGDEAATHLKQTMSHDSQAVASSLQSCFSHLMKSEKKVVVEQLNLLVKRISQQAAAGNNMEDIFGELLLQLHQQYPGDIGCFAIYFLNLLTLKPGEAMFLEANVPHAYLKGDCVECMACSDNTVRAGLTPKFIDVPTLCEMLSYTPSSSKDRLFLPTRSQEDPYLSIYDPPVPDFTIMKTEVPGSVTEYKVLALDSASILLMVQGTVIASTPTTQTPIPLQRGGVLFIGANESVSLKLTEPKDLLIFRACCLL
As to the kind of experiment: human PMI inhibitors, high substrate, primary screen, biochemical, fluorescence intensity, high mannose 6-phosphate (AID 1220).

Test [5] has as its target Voltage-gated inwardly rectifying potassium channel KCNH2 (Homo sapiens, UniProt Q12809). As to the kind of experiment: hERG protection from proarrhythmic block, potency, dose response, cell-based, thallium flux (AID 2121). The format is ADME. A general note: Block of hERG is tested as a sign of cardiac risk.
Test [6] in a line: Luminescence Cell-Based Dose Retest to Confirm Inhibitors of Cancer Stem Cells. [Related pubchem assays (depositor defined):AID2717, AID2721]. Type of test: functional, Homo sapiens. The conditions noted are these: Homo sapiens.
The next test addresses Cytochrome P450 3A4 (Homo sapiens, UniProt P08684).
The target of test [7] is T3, Dual specificity protein phosphatase 3 (Homo sapiens, UniProt P51452). As to the kind of experiment: VHR1 phosphatase inhibitors, primary screen, biochemical, absorbance, uHTS (AID 1654).
Test [8] deals with T3, Dual specificity protein phosphatase 3. The test is described as follows: VHR1 phosphatase inhibitors, biochemical (AID 1878).
The target of test [9] is T4, Dual specificity protein phosphatase 6 (Rattus norvegicus, UniProt Q64346).
T4 sequence (Q64346 whole entry): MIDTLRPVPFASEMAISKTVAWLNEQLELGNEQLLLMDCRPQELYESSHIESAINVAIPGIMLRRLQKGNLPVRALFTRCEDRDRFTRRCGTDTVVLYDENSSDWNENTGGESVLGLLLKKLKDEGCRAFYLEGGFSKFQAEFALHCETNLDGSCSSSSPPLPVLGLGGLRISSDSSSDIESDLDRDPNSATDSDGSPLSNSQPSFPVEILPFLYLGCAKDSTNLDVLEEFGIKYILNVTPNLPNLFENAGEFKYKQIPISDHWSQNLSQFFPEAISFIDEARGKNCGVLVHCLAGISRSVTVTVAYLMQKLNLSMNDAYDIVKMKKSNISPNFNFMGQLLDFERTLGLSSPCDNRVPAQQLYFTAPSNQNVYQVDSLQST
The test is described as follows: MKP-3 phosphatase inhibitors, primary screen, biochemical, rat enzyme, in vitro (AID 425).

The target of test [10] is Induced myeloid leukemia cell differentiation protein Mcl-1 (Homo sapiens, UniProt Q07820). The format is functional.
Test [11] in a line: THP-1 cell cytotoxicity, dose response, cytotoxicity control for Vif-APOBEC3G degradation inhibitor project, THP-1 cells (AID 1117359). Type of test: functional. The conditions noted are these: Human immunodeficiency virus 1, THP-1.
The target in test [12] is T5, Hepatocyte nuclear factor 4-alpha (Homo sapiens, UniProt P41235).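 Also: biochemical luminescence-based dose-response counterscreen measuring inhibition of HNF4 dimerization, run alongside a screen for blockers of ABHD5–perilipin-5 interaction; split luciferase complementation of HNF4 fusion proteins in cell lysate measuring dimerization.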
T5 sequence (P41235 whole entry): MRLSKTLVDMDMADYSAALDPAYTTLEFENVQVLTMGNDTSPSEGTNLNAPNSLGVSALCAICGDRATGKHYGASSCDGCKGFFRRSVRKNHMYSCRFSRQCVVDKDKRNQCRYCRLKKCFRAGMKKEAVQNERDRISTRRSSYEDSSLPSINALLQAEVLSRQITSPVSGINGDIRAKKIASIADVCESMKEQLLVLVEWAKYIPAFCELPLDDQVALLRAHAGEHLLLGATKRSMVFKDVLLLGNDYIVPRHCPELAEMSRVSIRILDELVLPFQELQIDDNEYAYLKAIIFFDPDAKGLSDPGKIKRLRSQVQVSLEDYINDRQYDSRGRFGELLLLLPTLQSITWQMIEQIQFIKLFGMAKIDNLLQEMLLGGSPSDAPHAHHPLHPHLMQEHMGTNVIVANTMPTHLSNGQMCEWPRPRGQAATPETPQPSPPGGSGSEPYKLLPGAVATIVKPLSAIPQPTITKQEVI
The format is functional, cell-based.

In a further test the target is T6, Estrogen receptor (Homo sapiens, UniProt P03372).
T6 sequence (P03372 whole entry): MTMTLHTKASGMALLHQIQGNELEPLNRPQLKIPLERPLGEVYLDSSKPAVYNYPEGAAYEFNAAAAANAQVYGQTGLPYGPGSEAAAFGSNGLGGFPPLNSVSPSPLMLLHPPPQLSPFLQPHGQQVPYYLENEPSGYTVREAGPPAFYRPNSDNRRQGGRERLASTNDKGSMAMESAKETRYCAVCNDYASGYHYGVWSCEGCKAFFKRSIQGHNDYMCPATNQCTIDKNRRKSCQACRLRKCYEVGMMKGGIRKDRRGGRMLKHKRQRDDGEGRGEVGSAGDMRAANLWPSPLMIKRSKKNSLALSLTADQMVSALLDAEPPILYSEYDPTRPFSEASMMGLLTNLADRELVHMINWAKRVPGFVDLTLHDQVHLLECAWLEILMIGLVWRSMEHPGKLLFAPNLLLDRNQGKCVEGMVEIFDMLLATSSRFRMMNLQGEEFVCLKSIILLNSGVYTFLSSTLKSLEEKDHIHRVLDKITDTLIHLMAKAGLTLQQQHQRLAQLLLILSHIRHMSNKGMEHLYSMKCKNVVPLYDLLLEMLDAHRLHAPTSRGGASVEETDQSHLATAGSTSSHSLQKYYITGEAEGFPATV

In test [13] the target is T7, High affinity choline transporter 1 (Homo sapiens, UniProt Q9GZV3).
T7 sequence (Q9GZV3 whole entry): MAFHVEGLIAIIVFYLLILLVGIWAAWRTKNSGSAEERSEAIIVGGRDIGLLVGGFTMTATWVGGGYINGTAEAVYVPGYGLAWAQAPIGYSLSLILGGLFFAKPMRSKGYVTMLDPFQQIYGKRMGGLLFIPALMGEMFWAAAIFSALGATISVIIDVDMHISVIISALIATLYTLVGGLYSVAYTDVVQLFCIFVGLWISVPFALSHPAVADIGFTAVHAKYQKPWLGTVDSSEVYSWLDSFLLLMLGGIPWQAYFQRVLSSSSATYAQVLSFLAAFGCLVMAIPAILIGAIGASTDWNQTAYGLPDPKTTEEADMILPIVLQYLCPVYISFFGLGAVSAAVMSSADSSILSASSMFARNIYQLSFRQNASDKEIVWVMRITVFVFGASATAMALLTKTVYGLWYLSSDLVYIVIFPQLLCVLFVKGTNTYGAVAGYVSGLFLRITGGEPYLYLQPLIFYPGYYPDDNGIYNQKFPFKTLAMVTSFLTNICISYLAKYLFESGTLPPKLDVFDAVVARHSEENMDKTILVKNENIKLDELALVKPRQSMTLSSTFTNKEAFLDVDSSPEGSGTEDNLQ
The test is described as follows: CHT inhibitors, dose response, cell-based, 5-point CRC, membrane potential dye (AID 504840). Type of test: functional.

Each structure is given as a SMILES string. Calls of active or inactive are those of the source.

Chain of Ephrin type-A receptor 4 (Q03137 whole entry): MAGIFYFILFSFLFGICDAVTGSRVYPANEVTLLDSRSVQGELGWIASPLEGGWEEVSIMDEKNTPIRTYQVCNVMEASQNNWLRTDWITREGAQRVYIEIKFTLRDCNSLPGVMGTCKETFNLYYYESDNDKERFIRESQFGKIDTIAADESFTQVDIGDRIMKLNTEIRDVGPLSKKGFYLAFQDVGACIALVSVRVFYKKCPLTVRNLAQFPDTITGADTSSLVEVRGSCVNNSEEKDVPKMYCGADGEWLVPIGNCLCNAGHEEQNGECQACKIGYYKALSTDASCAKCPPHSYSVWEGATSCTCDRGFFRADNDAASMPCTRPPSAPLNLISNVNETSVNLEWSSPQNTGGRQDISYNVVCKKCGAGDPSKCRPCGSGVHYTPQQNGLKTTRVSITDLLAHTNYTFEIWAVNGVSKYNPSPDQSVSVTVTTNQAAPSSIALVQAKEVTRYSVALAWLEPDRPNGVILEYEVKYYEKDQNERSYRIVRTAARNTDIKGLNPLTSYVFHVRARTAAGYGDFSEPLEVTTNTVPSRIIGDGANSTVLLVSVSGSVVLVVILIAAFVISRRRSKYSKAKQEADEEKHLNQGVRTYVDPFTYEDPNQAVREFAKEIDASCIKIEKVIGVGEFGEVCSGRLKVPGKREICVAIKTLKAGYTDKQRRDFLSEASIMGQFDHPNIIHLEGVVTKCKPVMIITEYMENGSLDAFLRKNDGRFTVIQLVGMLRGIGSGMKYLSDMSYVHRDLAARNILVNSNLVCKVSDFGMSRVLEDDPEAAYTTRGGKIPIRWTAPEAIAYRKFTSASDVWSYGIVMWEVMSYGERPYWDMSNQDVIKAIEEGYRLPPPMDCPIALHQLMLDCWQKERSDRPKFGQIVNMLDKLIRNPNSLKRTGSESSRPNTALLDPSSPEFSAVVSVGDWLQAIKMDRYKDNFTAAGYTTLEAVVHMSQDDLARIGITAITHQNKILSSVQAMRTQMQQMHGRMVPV
Chain of Estrogen receptor beta (Q92731 whole entry): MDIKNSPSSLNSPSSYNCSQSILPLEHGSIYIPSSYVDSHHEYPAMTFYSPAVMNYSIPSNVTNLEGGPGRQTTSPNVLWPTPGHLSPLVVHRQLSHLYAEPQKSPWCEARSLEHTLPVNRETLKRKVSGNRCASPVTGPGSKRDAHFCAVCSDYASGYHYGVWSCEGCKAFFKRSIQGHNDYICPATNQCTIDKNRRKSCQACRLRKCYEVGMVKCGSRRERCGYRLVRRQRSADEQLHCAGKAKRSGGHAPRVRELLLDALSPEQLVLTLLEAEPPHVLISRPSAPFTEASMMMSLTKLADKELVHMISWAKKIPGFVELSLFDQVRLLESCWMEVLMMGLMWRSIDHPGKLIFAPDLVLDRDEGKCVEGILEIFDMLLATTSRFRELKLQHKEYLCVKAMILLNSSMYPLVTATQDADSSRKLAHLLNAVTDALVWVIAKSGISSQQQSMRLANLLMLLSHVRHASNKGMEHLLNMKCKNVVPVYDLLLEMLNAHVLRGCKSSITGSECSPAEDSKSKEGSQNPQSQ
T3 sequence (P51452 whole entry): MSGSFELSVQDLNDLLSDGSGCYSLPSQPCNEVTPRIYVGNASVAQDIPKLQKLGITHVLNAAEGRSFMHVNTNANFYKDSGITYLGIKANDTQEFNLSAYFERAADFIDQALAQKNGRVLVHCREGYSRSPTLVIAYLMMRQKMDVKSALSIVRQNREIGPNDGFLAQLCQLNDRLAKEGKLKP
Chain of Voltage-gated inwardly rectifying potassium channel KCNH2 (Q12809 whole entry): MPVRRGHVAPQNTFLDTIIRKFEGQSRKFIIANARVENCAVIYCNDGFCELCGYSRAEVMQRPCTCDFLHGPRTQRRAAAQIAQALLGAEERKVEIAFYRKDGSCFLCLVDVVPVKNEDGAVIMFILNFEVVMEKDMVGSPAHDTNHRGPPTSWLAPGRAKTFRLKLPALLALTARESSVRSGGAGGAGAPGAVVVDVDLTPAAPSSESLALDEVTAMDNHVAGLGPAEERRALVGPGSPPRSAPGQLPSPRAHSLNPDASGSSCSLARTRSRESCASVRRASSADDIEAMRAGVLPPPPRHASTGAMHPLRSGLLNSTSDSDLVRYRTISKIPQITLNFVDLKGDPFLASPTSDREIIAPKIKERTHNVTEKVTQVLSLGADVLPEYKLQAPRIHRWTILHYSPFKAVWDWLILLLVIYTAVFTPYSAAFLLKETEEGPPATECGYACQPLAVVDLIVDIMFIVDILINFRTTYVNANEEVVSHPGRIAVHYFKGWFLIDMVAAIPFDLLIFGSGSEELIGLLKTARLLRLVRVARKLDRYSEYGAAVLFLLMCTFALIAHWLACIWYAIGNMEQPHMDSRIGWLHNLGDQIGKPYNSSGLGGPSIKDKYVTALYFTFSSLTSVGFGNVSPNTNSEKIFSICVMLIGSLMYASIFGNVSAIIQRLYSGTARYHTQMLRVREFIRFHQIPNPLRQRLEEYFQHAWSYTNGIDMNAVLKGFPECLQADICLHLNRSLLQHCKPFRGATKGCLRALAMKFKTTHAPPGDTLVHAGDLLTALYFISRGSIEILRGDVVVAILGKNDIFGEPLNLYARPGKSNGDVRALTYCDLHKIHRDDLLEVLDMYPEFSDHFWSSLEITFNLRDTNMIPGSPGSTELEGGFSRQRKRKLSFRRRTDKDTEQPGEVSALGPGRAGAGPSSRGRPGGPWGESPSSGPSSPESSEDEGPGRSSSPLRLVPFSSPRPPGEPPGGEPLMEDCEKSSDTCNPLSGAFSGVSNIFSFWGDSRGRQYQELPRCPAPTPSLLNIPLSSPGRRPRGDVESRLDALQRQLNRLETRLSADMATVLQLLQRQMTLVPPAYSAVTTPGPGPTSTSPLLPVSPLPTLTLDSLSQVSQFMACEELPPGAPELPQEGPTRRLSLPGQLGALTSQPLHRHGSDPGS
Chain of Induced myeloid leukemia cell differentiation protein Mcl-1 (Q07820 whole entry): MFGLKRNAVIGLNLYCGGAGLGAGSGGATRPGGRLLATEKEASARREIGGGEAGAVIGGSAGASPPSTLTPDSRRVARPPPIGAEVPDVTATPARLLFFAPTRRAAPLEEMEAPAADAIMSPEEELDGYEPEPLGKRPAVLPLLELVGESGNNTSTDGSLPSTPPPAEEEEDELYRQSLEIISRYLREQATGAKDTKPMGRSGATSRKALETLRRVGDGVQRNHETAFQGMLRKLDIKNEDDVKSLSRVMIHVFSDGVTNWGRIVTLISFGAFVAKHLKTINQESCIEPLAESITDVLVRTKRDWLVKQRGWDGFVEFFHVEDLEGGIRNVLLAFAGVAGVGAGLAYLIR
Chain of Cytochrome P450 3A4 (P08684 whole entry): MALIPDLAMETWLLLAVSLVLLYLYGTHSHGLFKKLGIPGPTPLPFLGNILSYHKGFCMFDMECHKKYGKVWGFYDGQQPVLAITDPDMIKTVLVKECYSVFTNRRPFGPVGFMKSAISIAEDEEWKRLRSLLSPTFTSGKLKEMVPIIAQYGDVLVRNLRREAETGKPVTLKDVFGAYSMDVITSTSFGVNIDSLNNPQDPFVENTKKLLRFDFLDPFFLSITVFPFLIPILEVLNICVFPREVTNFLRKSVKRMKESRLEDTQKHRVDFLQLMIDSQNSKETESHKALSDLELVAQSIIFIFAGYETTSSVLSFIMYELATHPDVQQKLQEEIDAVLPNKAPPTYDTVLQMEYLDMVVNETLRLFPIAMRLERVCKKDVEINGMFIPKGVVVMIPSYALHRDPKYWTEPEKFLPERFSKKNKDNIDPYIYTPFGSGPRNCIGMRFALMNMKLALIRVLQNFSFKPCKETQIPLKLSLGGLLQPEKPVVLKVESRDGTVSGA

For `CC1(C)CCCC2=C1CC1C(=O)N(O)C(=O)C1C2` (stereo unspecified), the IC50 at Estrogen receptor beta is reported as > 50 µM (not active).
For the molecule `CCN(CC)CCCN(Cc1cc2cc3c(cc2nc1O)OCCO3)C(=O)Nc1ccccc1`, at Ephrin type-A receptor 4, the IC50 is 13.3 µM (active). For the same molecule, the AC50 in [1] is > 20 µM (inactive).
`C=C1N(C)c2cc([N+](=O)[O-])c(N)cc2C1(C)C`: the EC50 is 5.96 µM (active) in test [2] and > 60 µM (not active) in test [3]. For the same molecule, the IC50 in [4] was 11.5 µM (active).
As to `O=C(NC(=S)Nc1cccc(Cl)c1N1CCCCC1)c1ccco1`, in [5], the concentration giving a half-maximal response (EC50) is 0.46 µM (active). Moreover, the half-maximal activity concentration (AC50) in test [6] is 4.12 µM (active); on Cytochrome P450 3A4, 15.8 µM (inconclusive).
Regarding `COC(=O)c1ccc(O)c2nc3c(C=O)c(O)cc(O)c3nc12` [LOMOFUNGIN], the half-inhibitory concentration (IC50) in test [7] was 2.06 µM (active); in test [8], < 1.23 µM (inactive); in test [9], 48.2 µM (active); in test [10] it was 3.76 µM (active). In test [11], the CC50 is 8.31 µM (active).
As for `CCOC(=O)c1c(NC(C)=O)sc2c1CCC(C=O)=C2Sc1ccccc1`, the IC50 on Ephrin type-A receptor 4 was 2.26 µM (active); in test [12], 28.1 µM (inactive). For the same molecule, the concentration at half-maximal activity (AC50) in [6] is 3.85 µM (active).
Turning to `CC1Cc2ccccc2N1C(=O)CSc1nnc(-c2ccc(S(=O)(=O)N3CCCC3)cc2)n1C` (stereo unspecified), in [4], the 50% inhibitory concentration (IC50) is reported as > 50 µM (not active).
Turning to `Cc1sc2ncnc(NCc3ccco3)c2c1C`, the figures for the 50% inhibitory concentration (IC50) (against Estrogen receptor; on Estrogen receptor beta; in test [13]) were 35.3 µM (not active), 29.4 µM (active) and 13.2 µM (active), respectively.

What is called IC50 is the concentration that gives 50% inhibition. The term AC50 denotes the concentration at which the activity in the assay is half-maximal. A word on the EC50: it is the concentration needed to bring the measured effect to its halfway point. For orientation: CC50 means the concentration giving 50% cytotoxicity.
